# According to publication PMC9000469 (Molecules, 2022):
# Several values for one entry are separate records, joined by “and”; a condition that tells them apart may be missing. Equal values may be shown once. Entries after “also recorded” stand apart in the source; their conditions may differ. Where a name gives a salt, the structure may show the parent alone. Read-outs that look alike come from different tables or passages of the source.
# Tests used:
# [1] = parameters: method as in PMID 25840123; conditions: concentration 5 mM; cited from earlier work
# [2] = Permeability across the PermeaPad 96-well plate biomimetic barrier; format: in vitro ADME; conditions: for Effect of medium pH (6.8 versus 7.4) on permeability across the PermeaPad barrier: Student t-test, p > 0.05; for Permeability across the PermeaPad barrier by passive diffusion (in words): pH 6.8 and 7.4; for Papp on the Permeapad membrane: pH not stated in the sentence (equals the pH 7.4 value of Figure 4)
# Description: The […]® 96-well plate was purchased from InnoME GmbH ([…], Germany). The plate consists of a bottom plate, a screen plate with a lipid barrier and a lid. The surface area for permeation studying is 0.15 cm^2. The permeability tests across a biomimetic barrier of drug substances were performed from the bottom to the top compartment. The compounds were dissolved in PBS with pH 6.8 or 7.4. […] The permeation tests for all compounds were performed at room temperature (25 °C). HPLC methods were used to determine the concentration of the compound transported. The apparent permeability coefficient (Papp) was calculated according to the protocol described by di Cagno et al..
# Caco-2 monolayer [3] = conditions: previously published results, cited from earlier work
# [4] = Physicochemical properties of compounds (pKa, logP); conditions: internal data
# Excerpt: PA was obtained from Ethifarm (Ethifarm, Poznan, Poland). Reference substances CAF and NF were obtained from Sigma Aldrich (Merck Group, Darmstadt, Germany).
# Caco-2 monolayer [5] = conditions: for Papp across Caco-2 monolayer: basolateral to apical, 2 h, pH 7.4, 37 °C, mean ± SD, n = 3
# Description: For the transport study, the Caco-2 cells were seeded at 4 × 10^5 cells/well on the permeable cell culture inserts with a 0.4 µm pore diameter (Millipore-Merck Group, Darmstadt, Germany) placed in 6-well plates. The cells were cultured for 22 days in the incubator under optimal culture conditions (37 °C, 5% CO2, and 95% air) to their spontaneity differentiating. The integrity of the monolayer was tested by measuring the Trans Epithelial Electrical Resistance (TEER) every 48 h using a Millicel ERS-2 Voltohmmeter (Millipore-Merck Group, Darmstadt, Germany). The cells’ monolayer with an average TEER value > 600 Ohm × cm^2 was considered to be suitable for permeability testing.
# The permeability tests across the Caco-2 monolayer of substances were performed from basolateral to the apical compartment (B–A). Plates with cell culture inserts were incubated at 37 °C with shaking at 100 rpm for 2 h. Drug substances were dissolved in the transport buffer solution (HBSS with 25 mM HEPES, pH 7.4) and placed into a donor compartment. The solution volume in the apical and basolateral compartments was maintained at 2 mL and 4 mL, respectively. The samples (150 µL) from the acceptor compartment were taken at 15 min intervals and were replaced with fresh reheated (37 °C) buffer. The HPLC analysis described below was used to determine the concentration of the compound transported. Transport kinetics and the apparent permeability coefficient (Papp) were calculated according to the protocols described by Tavelin et al. and Hubatsch et al..
# Concentrations of all compounds transported were determined by the reverse phase HPLC with UV-VIS detection. HPLC analysis was conducted on Waters UPLC Acquity H-class apparatus with Empower 3.0 software (Waters Corporation, Milford, MA, USA). […] The isocratic flow rate was set as 0.6 mL/min and the detection wavelength on λ = 215 nm.
# [6] = cited from earlier work
# [7] = conditions of high temperatures and relative humidity; cited from earlier work
# PEPT2 = test system: PEPT2; parameters: method as in PMID 19519280; conditions: cited from earlier work
# PEPT1 = test system: PEPT1; parameters: method as in PMID 19519280; conditions: cited from earlier work
# Caco-2 cells = assay: MTT cytotoxicity assay in Caco-2 cells; conditions: 0.0–2.0 mg/mL, 2 h exposure
# Description: After leaving them overnight, different concentrations of analyzed substances in HBSS pH 7.4 were added.. Cells were exposed to the substances for 2 h (time of transport across monolayer) in an incubator under optimal culture conditions. After incubation, the solution was removed and the mixture of DMEM cell culture medium and MTT (5 mg/mL) was added. Cells were incubated for 2 h, and then the resulting formazan crystals were dissolved in DMSO. The absorbance was measured using an Elx-800 absorbance microplate reader (Biotek, Winooski, VT, USA) at wavelength 540 nm.
# [8] = cited from earlier work; remark: listed apart in the source
compound,measurement,setting,value
"Cn1c(=O)c2c(ncn2C)n(C)c1=O [CAF, caffeine]",Papp in the PermeaPad barrier,[1],24 ×10⁻⁶ cm/s
same,Effect of medium pH (6.8 versus 7.4) on permeability across the PermeaPad barrier,[2],no significant difference
same,Permeability across the PermeaPad barrier by passive diffusion (in words),[2],highest transport
same,Permeability across the PermeaPad barrier by passive diffusion (in words),[2]; listed as Caffeine,high permeable
"CCN(CC)CCOC(=O)C(Cc1cccc2ccccc12)CC1CCCO1 (stereo not shown) [NF, Naftidrofuryl oxalate]",Papp through the Caco-2 monolayer,Caco-2 monolayer [3]; 0.125 mg/mL,84.1 ×10⁻⁶ cm/s
same,Papp through the Caco-2 monolayer,Caco-2 monolayer [3]; 0.2 mg/mL,78.8 ×10⁻⁶ cm/s
same,pKa,[4],4.1
same,Effect of medium pH (6.8 versus 7.4) on permeability across the PermeaPad barrier,[2],slightly lower permeability of NF in medium at pH 7.4
same,Papp at 4 h,"[2]; not told, both 0.2 mg/mL and 0.125 mg/mL, read-out: Papp through the PermeaPad membrane, bound stated for both concentrations",> 10 ×10⁻⁶ cm/s
same,Permeability across the PermeaPad barrier by passive diffusion (in words),[2],relatively high and high
"CCC[C@H](N[C@@H](C)C(=O)N1[C@H](C(=O)O)C[C@@H]2CCCC[C@@H]21)C(=O)OCC.N=C(N)NCCC[C@H](N)C(=O)O [PA, Perindopril arginine]",Compound Permeability (Caco-2 monolayer),Caco-2 monolayer [5]; 1.0 mg/mL,"low (when Papp is lower than 1 × 10^−6 cm/s, the substance is considered poorly permeable)"
same,Papp across Caco-2 monolayer,Caco-2 monolayer [5]; 1.0 mg/mL,0.72 ± 0.04 × 10^−6 cm/s
same,Papp across Caco-2 monolayer,Caco-2 monolayer [5]; 2.0 mg/mL,1.94 ± 0.96 × 10^−6 cm/s
same,pKa (strongest acid),[4],3.17
same,pKa (strongest base),[4],5.67
same,logP,[4]; two values printed per compound without explanation,0.65 and 0.56
same,Time to peak plasma concentrations (absorption completed),[6]; after oral administration,approximately 1 h
same,Absolute oral bioavailability,[6],75%
same,Shelf life and stability of the arginine salt compared with the erbumine salt,[7],greater shelf life and stability
same,Interaction with the intestinal peptide transporter PEPT2,PEPT2,relatively poor interaction
same,Interaction with the intestinal peptide transporter PEPT1,PEPT1,relatively poor interaction
same,Cytotoxicity to the Caco-2 cell line (MTT),Caco-2 cells,not cytotoxic; also recorded: No effect
same,Papp on the Permeapad membrane,[2]; 1.0 mg/mL,35.7 ×10⁻⁶ cm/s
same,Papp on the Permeapad membrane,[2]; 2.0 mg/mL,43.9 ×10⁻⁶ cm/s
same,Effect of medium pH (6.8 versus 7.4) on permeability across the PermeaPad barrier,[2],did not affect; also recorded: no significant differences
same,Permeability across the PermeaPad barrier by passive diffusion (in words),[2],lowest permeability; also recorded: relatively low permeability
same,Permeability (BCS characterisation),[8],low permeability
same,Permeability (characterisation),[8],low permeability
"CCC[C@H](N[C@@H](C)C(=O)N1[C@H](C(=O)O)C[C@@H]2CCCC[C@@H]21)C(=O)O [Perindoprilat, perindoprilat]",Average bioavailability of the active metabolite,[6]; after oral PA,about 25%
same,Mean half-life,[6],5 to 11 h
CCC[C@H](N[C@@H](C)C(=O)N1[C@H](C(=O)O)C[C@@H]2CCCC[C@@H]21)C(=O)OCC [perindopril],Fraction metabolized into perindoprilat during the first pass of the liver,"[6]; oral administration, no ref printed with the sentence",30–50%
